Assay results as given in ChEMBL document CHEMBL5365526 (J Med Chem, 2023).
Calls of active or inactive are those of the source.

What was measured:
[1] = target: T1, von Hippel-Lindau disease tumor suppressor/Mitogen-activated protein kinase 7 (Homo sapiens, UniProt Q13164+P40337); assay: PROTAC activity at VHL/ERK5 in human MDA-MB-231 cells assessed as maximal induction of ERK5 degradation incubated for 12 hrs by western blot analysis relative to control; format: cell-based
Target sequence in this assay (P40337 whole entry partner): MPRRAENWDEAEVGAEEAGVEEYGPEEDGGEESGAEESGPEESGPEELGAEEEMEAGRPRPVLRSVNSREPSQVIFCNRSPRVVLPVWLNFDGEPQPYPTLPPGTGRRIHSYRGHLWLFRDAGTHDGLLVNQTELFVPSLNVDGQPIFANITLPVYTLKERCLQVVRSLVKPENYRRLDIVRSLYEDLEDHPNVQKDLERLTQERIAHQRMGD
Target sequence in this assay (Q13164 2-816 limits assumed): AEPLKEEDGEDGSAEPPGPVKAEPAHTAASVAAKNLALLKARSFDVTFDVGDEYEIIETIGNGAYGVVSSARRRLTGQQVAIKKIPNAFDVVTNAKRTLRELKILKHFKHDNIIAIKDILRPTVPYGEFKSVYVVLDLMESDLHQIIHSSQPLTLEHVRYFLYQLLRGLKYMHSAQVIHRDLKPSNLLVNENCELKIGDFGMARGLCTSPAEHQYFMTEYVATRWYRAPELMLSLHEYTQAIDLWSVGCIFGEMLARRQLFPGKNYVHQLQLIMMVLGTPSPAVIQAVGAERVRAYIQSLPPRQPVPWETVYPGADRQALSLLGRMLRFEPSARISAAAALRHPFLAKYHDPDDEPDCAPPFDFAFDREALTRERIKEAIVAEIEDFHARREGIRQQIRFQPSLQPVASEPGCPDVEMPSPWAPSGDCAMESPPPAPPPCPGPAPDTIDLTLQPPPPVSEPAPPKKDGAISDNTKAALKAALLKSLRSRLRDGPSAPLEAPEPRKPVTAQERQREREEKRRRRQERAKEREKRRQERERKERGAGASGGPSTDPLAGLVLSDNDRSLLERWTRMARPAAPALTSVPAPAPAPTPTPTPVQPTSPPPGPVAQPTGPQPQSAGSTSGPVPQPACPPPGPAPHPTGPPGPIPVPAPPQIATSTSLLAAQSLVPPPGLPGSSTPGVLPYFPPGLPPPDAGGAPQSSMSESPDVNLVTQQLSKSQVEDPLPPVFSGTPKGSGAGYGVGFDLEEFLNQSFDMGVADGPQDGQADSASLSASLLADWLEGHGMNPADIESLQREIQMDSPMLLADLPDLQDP

MDA-MB-231 = assay: Antiproliferative activity against human MDA-MB-231 cells assessed as reduction in cell viability incubated for 72 hrs by CCK8 assay; format: functional, cell-based
[2] = target: T1, von Hippel-Lindau disease tumor suppressor/Mitogen-activated protein kinase 7; assay: PROTAC activity at VHL/ERK5 in human HCT-116 cells assessed as induction of ERK5 degradation at 200 nM incubated for 48 hrs by western blot analysis; format: cell-based
Target sequence in this assay (P40337 whole entry partner): as the sequence (P40337 whole entry partner) above
Target sequence in this assay (Q13164 2-816 limits assumed): as the sequence (Q13164 2-816 limits assumed) above

[3] = target: T1, von Hippel-Lindau disease tumor suppressor/Mitogen-activated protein kinase 7; assay: PROTAC activity at VHL/ERK5 in human HCT-116 cells assessed as induction of ERK5 degradation incubated for 12 hrs by western blot analysis; format: cell-based
Target sequence in this assay (Q13164 whole entry): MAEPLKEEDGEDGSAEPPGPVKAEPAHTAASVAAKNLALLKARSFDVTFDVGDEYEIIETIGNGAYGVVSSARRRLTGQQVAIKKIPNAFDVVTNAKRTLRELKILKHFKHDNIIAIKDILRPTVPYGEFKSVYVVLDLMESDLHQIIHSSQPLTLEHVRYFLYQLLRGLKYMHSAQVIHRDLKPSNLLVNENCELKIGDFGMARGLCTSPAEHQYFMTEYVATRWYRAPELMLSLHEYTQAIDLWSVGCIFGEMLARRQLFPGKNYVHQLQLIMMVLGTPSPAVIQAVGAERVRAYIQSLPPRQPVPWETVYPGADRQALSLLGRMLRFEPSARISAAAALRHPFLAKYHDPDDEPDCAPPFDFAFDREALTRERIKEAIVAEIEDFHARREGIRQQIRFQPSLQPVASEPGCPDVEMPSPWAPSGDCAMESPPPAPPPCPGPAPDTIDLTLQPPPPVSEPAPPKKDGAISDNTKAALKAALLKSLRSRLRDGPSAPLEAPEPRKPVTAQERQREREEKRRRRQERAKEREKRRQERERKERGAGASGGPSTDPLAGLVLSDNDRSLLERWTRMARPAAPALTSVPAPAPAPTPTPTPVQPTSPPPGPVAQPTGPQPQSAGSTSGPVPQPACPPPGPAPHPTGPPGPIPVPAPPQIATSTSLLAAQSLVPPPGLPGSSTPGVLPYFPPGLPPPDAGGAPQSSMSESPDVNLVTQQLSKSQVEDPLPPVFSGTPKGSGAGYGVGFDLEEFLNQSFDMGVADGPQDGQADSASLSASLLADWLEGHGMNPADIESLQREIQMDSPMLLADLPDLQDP
Target sequence in this assay (P40337 whole entry): as the sequence (P40337 whole entry partner) above

A-375 [4] = assay: Effect on GDC0994-induced antitumor activity against human A-375 cells assessed as reduction in cell viability at 200 nM incubated for 72 hrs by CCK8 assay; format: functional, cell-based
HCT-116 [5] = assay: Inhibition of cell colony formation in human HCT-116 cells at 0.5 uM cultured in 8% FBS and measured after 7 days in presence of LPS by crystal violet staining based analysis; format: functional; conditions: time 7.0 day
[6] = target: T2, Mitogen-activated protein kinase 7 (Homo sapiens, UniProt Q13164); assay: Inhibition of ERK5 (unknown origin) at 0.5 uM by kinase profiling analysis
Target sequence in this assay (Q13164 2-816 limits assumed): as the sequence (Q13164 2-816 limits assumed) above

[7] = target: von Hippel-Lindau disease tumor suppressor/Leucine-rich repeat serine/threonine-protein kinase 2 (Homo sapiens) (UniProt Q5S007+P40337); assay: PROTAC activity at VHL/LRRK2 in human A-375 cells assessed as induction of LRRK2 degradation at 6 to 500 nM incubated for 12 hrs by western bot analysis; format: cell-based; conditions: dose 6-500 nM
[8] = target: T1, von Hippel-Lindau disease tumor suppressor/Mitogen-activated protein kinase 7; assay: PROTAC activity at VHL/ERK5 in human A-375 cells assessed as induction of ERK5 degradation at 200 nM incubated for 12 hrs by western blot analysis; format: cell-based
Target sequence in this assay (P40337 whole entry partner): as the sequence (P40337 whole entry partner) above
Target sequence in this assay (Q13164 2-816 limits assumed): as the sequence (Q13164 2-816 limits assumed) above

HCT-116 [9] = assay: Antiproliferative activity against human HCT-116 cells assessed as reduction in cell viability incubated for 72 hrs by CCK8 assay; format: functional, cell-based
[10] = target: T1, von Hippel-Lindau disease tumor suppressor/Mitogen-activated protein kinase 7; assay: PROTAC activity at VHL/ERK5 in human A-375 cells assessed as induction of ERK5 degradation at 200 nM incubated for 72 hrs by western blot analysis; format: cell-based
Target sequence in this assay (P40337 whole entry partner): as the sequence (P40337 whole entry partner) above
Target sequence in this assay (Q13164 2-816 limits assumed): as the sequence (Q13164 2-816 limits assumed) above

A-375 [11] = assay: Inhibition of M2 macrophage development in human A-375 cells assessed as inhibition of cell colony formation at 0.5 uM cultured in specific M2 medium and measured after 7 days in presence of LPS by crystal violet staining based analysis; format: functional; conditions: time 7.0 day
[12] = target: T1, von Hippel-Lindau disease tumor suppressor/Mitogen-activated protein kinase 7; assay: PROTAC activity at VHL/ERK5 in human A-375 cells assessed as induction of ERK5 degradation at 200 nM pretreated for 1 hr with proteasome inhibitor, MG132 followed by incubation with compound for 12 hrs by western blot analysis; format: cell-based
Target sequence in this assay (P40337 whole entry partner): as the sequence (P40337 whole entry partner) above
Target sequence in this assay (Q13164 2-816 limits assumed): as the sequence (Q13164 2-816 limits assumed) above

A-375 [13] = assay: Inhibition of cell colony formation in human A-375 cells at 0.5 uM cultured in 8% FBS and measured after 7 days in presence of LPS by crystal violet staining based analysis; format: functional; conditions: time 7.0 day
A-375 [14] = assay: Effect on mirdametinib-induced antitumor activity against human A-375 cells assessed as reduction in cell viability at 200 nM incubated for 72 hrs by CCK8 assay; format: functional, cell-based
A-375 [15] = assay: Inhibition of M2 macrophage development in human A-375 cells assessed as inhibition of cell colony formation at 0.5 uM cultured in macrophage M0 medium and measured after 7 days in presence of LPS by crystal violet staining based analysis; format: functional; conditions: time 7.0 day
NCI-H1975 = assay: Antiproliferative activity against human NCI-H1975 cells assessed as reduction in cell viability incubated for 72 hrs by CCK8 assay; format: functional, cell-based
[16] = target: T1, von Hippel-Lindau disease tumor suppressor/Mitogen-activated protein kinase 7; assay: PROTAC activity at VHL/ERK5 in human HepG2 cells assessed as maximal induction of ERK5 degradation incubated for 12 hrs by western blot analysis relative to control; format: cell-based
Target sequence in this assay (P40337 whole entry partner): as the sequence (P40337 whole entry partner) above
Target sequence in this assay (Q13164 2-816 limits assumed): as the sequence (Q13164 2-816 limits assumed) above

[17] = target: T1, von Hippel-Lindau disease tumor suppressor/Mitogen-activated protein kinase 7; assay: PROTAC activity at VHL/ERK5 in human A-375 cells assessed as induction of ERK5 degradation at 1.1 microM incubated for 12 hrs by western blot analysis; format: cell-based
HCT-116 [18] = assay: Effect on trametinib-induced antitumor activity against human HCT-116 cells assessed as reduction in cell viability at 200 nM incubated for 72 hrs by CCK8 assay; format: functional, cell-based
[19] = target: T1, von Hippel-Lindau disease tumor suppressor/Mitogen-activated protein kinase 7; assay: PROTAC activity at VHL/ERK5 in human THP-1 cells assessed as decrease in IL-10 level at 0.5 uM incubated for 0.5 hrs followed by incubation with LPS for 24 hrs; format: cell-based; conditions: time 24.5 hrs
A-375 [20] = assay: Effect on dabrafenib-induced antitumor activity against human A-375 cells assessed as reduction in cell viability at 200 nM incubated for 72 hrs by CCK8 assay; format: functional, cell-based
[21] = target: T1, von Hippel-Lindau disease tumor suppressor/Mitogen-activated protein kinase 7; assay: PROTAC activity at VHL/ERK5 in human NCI-H1975 cells assessed as induction of ERK5 degradation incubated for 12 hrs by western blot analysis; format: cell-based
Target sequence in this assay (Q13164 whole entry): as the sequence (Q13164 whole entry) above
Target sequence in this assay (P40337 whole entry): as the sequence (P40337 whole entry partner) above

A-375 [22] = assay: Effect on ERK5 mRNA expression in human A-375 cells at 10 to 1000 nM incubated for 24 hrs by real-time PCR analysis; format: functional, cell-based; conditions: dose 10-1000 nM
THP-1 = assay: Inhibition of M2 macrophage development in PMA-differentiated human THP-1 cells assessed as morphological alterations in macrophages at 0.5 uM incubated for 48 hrs by microscopic analysis; format: functional, cell-based
[23] = target: T1, von Hippel-Lindau disease tumor suppressor/Mitogen-activated protein kinase 7; assay: PROTAC activity at VHL/ERK5 in human A-375 cells assessed as induction of ERK5 degradation incubated for 24 hrs by western blot analysis; format: cell-based
Target sequence in this assay (Q13164 whole entry): as the sequence (Q13164 whole entry) above
Target sequence in this assay (P40337 whole entry): as the sequence (P40337 whole entry partner) above

PC-3 = assay: Antiproliferative activity against human PC-3 cells assessed as reduction in cell viability incubated for 72 hrs by CCK8 assay; format: functional, cell-based
HCT-116 [24] = assay: Effect on vemurafenib-induced antitumor activity against human HCT-116 cells assessed as reduction in cell viability at 200 nM incubated for 72 hrs by CCK8 assay; format: functional, cell-based
[25] = target: T1, von Hippel-Lindau disease tumor suppressor/Mitogen-activated protein kinase 7; assay: PROTAC activity at VHL/ERK5 in human THP-1 cells assessed as induction of ERK5 degradation at 0.5 uM incubated for 0.5 hrs followed by incubation with LPS for 24 hrs by western blot analysis; format: cell-based; conditions: time 24.5 hrs
[26] = target: T1, von Hippel-Lindau disease tumor suppressor/Mitogen-activated protein kinase 7; assay: PROTAC activity at VHL/ERK5 in human A-375 cells assessed as induction of ERK5 degradation at 100 nM incubated for 24 hrs by western blot analysis; format: cell-based
HCT-116 [27] = assay: Effect on cell migration in human HCT-116 cells at 0.01 to 1 uM incubated for 24 hrs by crystal violet staining based transwell assay; format: functional; conditions: dose 0.01-1 µM
[28] = target: T2, Mitogen-activated protein kinase 7; assay: Inhibition of ERK5 (unknown origin) by ADP-Glo kinase assay
Target sequence in this assay (Q13164 whole entry): as the sequence (Q13164 whole entry) above

HCT-116 [29] = assay: Effect on GDC0994-induced antitumor activity against human HCT-116 cells assessed as reduction in cell viability at 200 nM incubated for 72 hrs by CCK8 assay; format: functional, cell-based
[30] = target: von Hippel-Lindau disease tumor suppressor/Bromodomain-containing protein 4 (Homo sapiens) (UniProt O60885+P40337); assay: PROTAC activity at VHL/BRD4 in human A-375 cells assessed as induction of BRD4 degradation at 6 to 500 nM incubated for 12 hrs by western bot analysis; format: cell-based; conditions: dose 6-500 nM
Chain of von Hippel-Lindau disease tumor suppressor/Bromodomain-containing protein 4 (Homo sapiens) (P40337 whole entry, looked up, other chains not shown): as the sequence (P40337 whole entry partner) above

COc1cc(N2CCN(CCCCCCC(=O)N[C@H](C(=O)N3C[C@H](O)C[C@H]3C(=O)N[C@@H](C)c3ccc(-c4scnc4C)cc3)C(C)(C)C)CC2)ccc1Nc1ncc2c(n1)N(C)c1ccccc1C(=O)N2C
62.4 nM: IC50 [28]
~17 nM: DC50 [23]
5.6 nM: DC50 [3]
11.5 nM: DC50 [21]
92.7%: Activity [16]
inactive: Activity (MDA-MB-231) | Activity (A-375 [4]) | inhibition (HCT-116 [5]) | Activity [7] | Activity (HCT-116 [9]) | Activity [12] | inhibition (A-375 [13]) | Activity (A-375 [14]) | Activity (NCI-H1975) | Activity [17] | Activity (HCT-116 [18]) | Activity (A-375 [20]) | Activity (A-375 [22]) | Activity (PC-3) | Activity (HCT-116 [24]) | Activity (HCT-116 [27]) | Activity (HCT-116 [29]) | Activity [30]
active: Activity [2] | inhibition [6] | Activity [8] | Activity [10] | inhibition (A-375 [11]) | inhibition (A-375 [15]) | Activity [19] | inhibition (THP-1) | Activity [25] | Activity [26]
86.7%: Activity [1]
